Non-standard residues stand in square brackets, D forms with d. Residues, ends and D or L forms follow the SMILES beside them. *: point of attachment. Bpa = N[C@@H](Cc1ccc(C(=O)c2ccccc2)cc1)C(=O)O; Phe(4-Br) = N[C@@H](Cc1ccc(Br)cc1)C(=O)O; PEG7 = NCCOCCOCCOCCOCCOCCOCCOCCC(=O)O; Fmoc = O=C(OCC1c2ccccc2-c2ccccc21)*; NMeR = CN[C@@H](CCCNC(=N)N)C(=O)O; NMeL = CN[C@@H](CC(C)C)C(=O)O; PEG4 = NCCOCCOCCOCCOCCC(=O)O; PEG3 = NCCOCCOCCOCCC(=O)O; Nle = CCCC[C@H](N)C(=O)O; Aib = CC(C)(N)C(=O)O
Columns and labels:
[1] = Protein binding in 55% mouse plasma at 100 uM incubated for 3 hrs by LC/MS detection based equilibrium dialysis; type: ADME, cell-free; settings: 55% plasma, read-out: PPB (converted)
[2] = system: Mus musculus; assay: Cardioprotective activity in C57BL/6 mouse assessed as reduction in mean arterial blood pressure at 1.4 uM/kg, iv measured after 15 mins relative to control; type: functional; settings: 0.25 h
[3] = Half life in mouse plasma at 400 uM by HPLC analysis; type: ADME, cell-free
[4] = molecular target: T1, Apelin receptor (Rattus norvegicus, UniProt Q9JHG3); assay: Displacement of [125I]-pyr-1-apelin-13 from EGFP-tagged wild-type rat apelin receptor expressed in CHO cell membranes by gamma counting method; parameters: species or system Cell membrane
T1 sequence (Q9JHG3 whole entry): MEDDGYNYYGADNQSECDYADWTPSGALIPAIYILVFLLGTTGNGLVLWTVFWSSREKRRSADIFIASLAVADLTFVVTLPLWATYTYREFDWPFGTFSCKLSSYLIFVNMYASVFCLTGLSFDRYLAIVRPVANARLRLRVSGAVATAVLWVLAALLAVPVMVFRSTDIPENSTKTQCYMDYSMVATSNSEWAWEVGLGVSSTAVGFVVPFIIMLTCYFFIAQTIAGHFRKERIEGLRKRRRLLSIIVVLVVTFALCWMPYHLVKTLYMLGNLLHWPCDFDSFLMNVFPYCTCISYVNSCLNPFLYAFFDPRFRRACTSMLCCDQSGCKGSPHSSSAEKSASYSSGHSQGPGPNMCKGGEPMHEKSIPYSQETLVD

[5] = Lipophilicity, log D of the compound in pH 7.4 PBS by LC/MS detection based shake flask assay; type: physicochemical
[6] = system: Heart; assay: Cardioprotective activity in mouse Langendorff heart perfusion and ischemia-reperfusion injury model assessed as left ventricle developed pressure at 1 uM dosed at start of reperfusion for 10 mins; type: functional
[7] = Protein binding in 55% human plasma at 100 uM incubated for 3 hrs by LC/MS detection based equilibrium dialysis; type: ADME, cell-free; settings: 55% plasma, read-out: PPB (converted)
[8] = system: Heart; assay: Cardioprotective activity in mouse Langendorff heart perfusion and ischemia-reperfusion injury model assessed as maximum derivative of change in systolic blood pressure over time at 1 uM dosed at start of reperfusion for 10 mins; type: functional
[9] = Half life in human plasma at 400 uM by HPLC analysis; type: ADME, cell-free
[10] = molecular target: T2, Apelin receptor (Homo sapiens, UniProt P35414); assay: Activation of APJ receptor (unknown origin) expressed in Chem-5 cells assessed as stimulation of Ca2+ mobilization by Calcium 6-GF dye based fluorescence based assay; type: functional, cell-based
T2 sequence (P35414 whole entry): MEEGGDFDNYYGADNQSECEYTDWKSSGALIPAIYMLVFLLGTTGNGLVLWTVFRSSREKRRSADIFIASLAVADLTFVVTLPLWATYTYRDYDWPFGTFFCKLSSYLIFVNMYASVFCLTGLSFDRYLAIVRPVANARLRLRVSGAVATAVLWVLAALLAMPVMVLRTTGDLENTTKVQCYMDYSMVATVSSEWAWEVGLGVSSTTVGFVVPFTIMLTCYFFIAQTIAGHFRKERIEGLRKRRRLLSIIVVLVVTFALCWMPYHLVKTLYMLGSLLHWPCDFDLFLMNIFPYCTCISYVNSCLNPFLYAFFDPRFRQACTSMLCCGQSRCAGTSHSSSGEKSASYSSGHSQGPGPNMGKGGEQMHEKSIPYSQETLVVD

Row | SMILES | fraction unbound at 3 h, 100 µM [1] | Activity [2] [mmHg] | half-life at 400 µM [3] [h] | IC50 [4] [nM] | logD [5] | Activity [6] [mmHg] | fraction unbound at 3 h, 100 µM [7] | dP/dt max [8] [mmHg/s] | half-life at 400 µM [9] [h] | EC50 [10] [nM]
1 | CCCC[C@H](NC(=O)[C@@H]1CCCN1C(=O)CNC(=O)[C@H](CCCCN)NC(=O)[C@H](Cc1c[nH]cn1)NC(=O)[C@H](CO)NC(=O)[C@H](CC(C)C)N(C)C(=O)[C@H](CCCNC(=N)N)NC(=O)[C@@H]1CCCN1C(=O)[C@H](CCCNC(=N)N)NC(=O)[C@H](CCC(N)=O)NC(=O)[C@H](CCCNC(=N)N)NC(=O)[C@H](CCCNC(=N)N)NC(=O)[C@H](Cc1ccccc1)NC(=O)[C@@H](N)CCCCN)C(=O)NC(C)(C)C(=O)N[C@@H](Cc1ccc(Br)cc1)C(=O)O (H-KFRRQRPR[NMeL]SHKGP[Nle][Aib][Phe(4-Br)]-OH) | 0.45 | 30 | 0.9 | 0.603 | -2.01 | 25 | 0.48 | 778 | 1.2 | 
2 | CSCC[C@H](NC(=O)[C@@H]1CCCN1C(=O)CNC(=O)[C@H](CCCCN)NC(=O)[C@H](Cc1c[nH]cn1)NC(=O)[C@H](CO)NC(=O)[C@H](CC(C)C)NC(=O)[C@H](CCCNC(=N)N)NC(=O)[C@@H]1CCCN1C(=O)[C@H](CCCNC(=N)N)NC(=O)[C@H](CCC(N)=O)NC(=O)[C@H](CCCNC(=N)N)NC(=O)[C@H](CCCNC(=N)N)NC(=O)[C@H](Cc1ccccc1)NC(=O)[C@@H](N)CCCCN)C(=O)N1CCCC1C(=O)N[C@@H](Cc1ccccc1)C(=O)O (some centres undefined) | 0.49 | 17 | 0.03 | 0.0501 | -2.57 | 30 | 0.43 | 1020 | 0.02 | 
3 | CCCC[C@H](NC(=O)[C@@H]1CCCN1C(=O)CNC(=O)[C@H](CCCCN)NC(=O)[C@H](Cc1c[nH]cn1)NC(=O)[C@H](CO)NC(=O)[C@H](CC(C)C)N(C)C(=O)[C@H](CCCNC(=N)N)NC(=O)[C@@H]1CCCN1C(=O)[C@H](CCCNC(=N)N)NC(=O)[C@H](CCC(N)=O)NC(=O)[C@H](CCCNC(=N)N)NC(=O)[C@H](CCCNC(=N)N)NC(=O)[C@H](Cc1ccccc1)NC(=O)[C@H](CCCCN)NC(=O)CCOCCOCCOCCOCCOCCOCCOCCNC(=O)[C@@H](N)Cc1ccccc1)C(=O)NC(C)(C)C(=O)N[C@@H](Cc1ccc(Br)cc1)C(=O)O (H-F[PEG7]KFRRQRPR[NMeL]SHKGP[Nle][Aib][Phe(4-Br)]-OH) |  | 24 |  | 1.7 |  |  |  |  | 6.4 | 25.7
4 | CCCC[C@H](NC(=O)[C@@H]1CCCN1C(=O)CNC(=O)[C@H](CCCCN)NC(=O)[C@H](Cc1c[nH]cn1)NC(=O)[C@H](CO)NC(=O)[C@H](CC(C)C)N(C)C(=O)[C@H](CCCNC(=N)N)NC(=O)[C@@H]1CCCN1C(=O)[C@H](CCCNC(=N)N)NC(=O)[C@H](CCC(N)=O)NC(=O)[C@H](CCCNC(=N)N)NC(=O)[C@H](CCCNC(=N)N)NC(=O)[C@H](Cc1ccccc1)NC(=O)[C@H](CCCCN)NC(=O)CCOCCOCCOCCNC(=O)OCC1c2ccccc2-c2ccccc21)C(=O)NC(C)(C)C(=O)N[C@@H](Cc1ccc(Br)cc1)C(=O)O ({Fmoc-PEG3}-KFRRQRPR[NMeL]SHKGP[Nle][Aib][Phe(4-Br)]-OH) |  | 32 |  | 2.51 |  |  |  |  | 2 | 17
5 | CCCC[C@H](NC(=O)[C@@H]1CCCN1C(=O)CNC(=O)[C@H](CCCCN)NC(=O)[C@H](Cc1c[nH]cn1)NC(=O)[C@H](CO)NC(=O)[C@H](CC(C)C)N(C)C(=O)[C@H](CCCNC(=N)N)NC(=O)[C@@H]1CCCN1C(=O)[C@H](CCCNC(=N)N)NC(=O)[C@H](CCC(N)=O)NC(=O)[C@H](CCCNC(=N)N)NC(=O)[C@H](CCCNC(=N)N)NC(=O)[C@H](Cc1ccccc1)NC(=O)[C@H](CCCCN)NC(=O)CCOCCOCCOCCOCCOCCOCCOCCNC(=O)[C@@H](N)Cc1ccc(C(=O)c2ccccc2)cc1)C(=O)NC(C)(C)C(=O)N[C@@H](Cc1ccc(Br)cc1)C(=O)O (H-[Bpa][PEG7]KFRRQRPR[NMeL]SHKGP[Nle][Aib][Phe(4-Br)]-OH) |  | 43 |  | 1.29 |  |  |  |  | 8.2 | 89.1
6 | CCCC[C@H](NC(=O)[C@@H]1CCCN1C(=O)CNC(=O)[C@H](CCCCN)NC(=O)[C@H](Cc1c[nH]cn1)NC(=O)[C@H](CO)NC(=O)[C@H](CC(C)C)N(C)C(=O)[C@H](CCCNC(=N)N)NC(=O)[C@@H]1CCCN1C(=O)[C@H](CCCNC(=N)N)NC(=O)[C@H](CCC(N)=O)NC(=O)[C@H](CCCNC(=N)N)NC(=O)[C@H](CCCNC(=N)N)NC(=O)[C@H](Cc1ccccc1)NC(=O)[C@H](CCCCN)NC(=O)CCOCCOCCOCCOCCN)C(=O)NC(C)(C)C(=O)N[C@@H](Cc1ccc(Br)cc1)C(=O)O (H-[PEG4]KFRRQRPR[NMeL]SHKGP[Nle][Aib][Phe(4-Br)]-OH) |  | 24 |  | 6.31 |  |  |  |  | 2 | 7.76
7 | CCCC[C@H](NC(=O)[C@@H]1CCCN1C(=O)CNC(=O)[C@H](CCCCN)NC(=O)[C@H](Cc1c[nH]cn1)NC(=O)[C@H](CO)NC(=O)[C@H](CC(C)C)N(C)C(=O)[C@H](CCCNC(=N)N)NC(=O)[C@@H]1CCCN1C(=O)[C@H](CCCNC(=N)N)NC(=O)[C@H](CCC(N)=O)NC(=O)[C@H](CCCNC(=N)N)N(C)C(=O)[C@H](CCCNC(=N)N)NC(=O)[C@H](Cc1ccccc1)NC(=O)[C@@H](N)CCCCN)C(=O)NC(C)(C)C(=O)N[C@@H](Cc1ccc(Br)cc1)C(=O)O (H-KFR[NMeR]QRPR[NMeL]SHKGP[Nle][Aib][Phe(4-Br)]-OH) |  | 14 |  | 1.51 |  |  |  |  | 5.2 | 3.47
8 | CCCC[C@H](NC(=O)[C@@H]1CCCN1C(=O)CNC(=O)[C@H](CCCCN)NC(=O)[C@H](Cc1c[nH]cn1)NC(=O)[C@H](CO)NC(=O)[C@H](CC(C)C)N(C)C(=O)[C@H](CCCNC(=N)N)NC(=O)[C@@H]1CCCN1C(=O)[C@H](CCCNC(=N)N)NC(=O)[C@H](CCC(N)=O)NC(=O)CCOCCOCCOCCOCCOCCOCCNC(=O)OCC1c2ccccc2-c2ccccc21)C(=O)NC(C)(C)C(=O)N[C@@H](Cc1ccc(Br)cc1)C(=O)O |  | 9 |  | 3.02 |  |  |  |  | 6.9 | 49
9 | CCCC[C@H](NC(=O)[C@@H]1CCCN1C(=O)CNC(=O)[C@H](CCCCN)NC(=O)[C@H](Cc1c[nH]cn1)NC(=O)[C@H](CO)NC(=O)[C@H](CC(C)C)N(C)C(=O)[C@H](CCCNC(=N)N)NC(=O)[C@@H]1CCCN1C(=O)[C@H](CCCNC(=N)N)NC(=O)[C@H](CCC(N)=O)NC(=O)[C@H](CCCNC(=N)N)NC(=O)[C@H](CCCNC(=N)N)NC(=O)[C@H](Cc1ccccc1)NC(=O)[C@H](CCCCN)NC(=O)CCOCCOCCOCCOCCOCCOCCOCCN)C(=O)NC(C)(C)C(=O)N[C@@H](Cc1ccc(Br)cc1)C(=O)O (H-[PEG7]KFRRQRPR[NMeL]SHKGP[Nle][Aib][Phe(4-Br)]-OH) | 0.31 | 35 |  | 1.7 | -1.82 |  | 0.21 |  | 3 | 2.88

— ChEMBL document CHEMBL4699534, “Optimizing PEG-Extended Apelin Analogues as Cardioprotective Drug Leads: Importance of the KFRR Motif and Aromatic Head Group for Improved Physiological Activity” (J Med Chem, 2020)
